Patent US7846959B2, “Raf modulators and methods of use” (Exelixis, Inc., priority 2004, dated 2010)

Columns and labels:
c-Raf = c-Raf (Homo sapiens, UniProt P04049); test: Luciferase-coupled chemiluminescence kinase assay (ATP consumption), c-Raf; assay type: biochemical; settings: read-out: cRaf-1 (inhibition indicated as IC50)
Method in brief: (§1)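 ATP depletion, limited to 25-60%, read by luciferase-luciferin chemiluminescence gives IC50 values. Before the 3 hr ambient-temperature kinase reaction with ATP, compound and […] enzyme were preincubated 30 minutes at room temperature in Tris pH 7.5 buffer with MgCl2, TX-100 and DTT.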

B-Raf = B-Raf (Homo sapiens, UniProt P15056); test: Luciferase-coupled chemiluminescence kinase assay (ATP consumption), B-Raf; assay type: biochemical; settings: read-out: bRaf (inhibition indicated as IC50)
Method in brief: as §1

c-Raf, sequence (P04049 whole entry): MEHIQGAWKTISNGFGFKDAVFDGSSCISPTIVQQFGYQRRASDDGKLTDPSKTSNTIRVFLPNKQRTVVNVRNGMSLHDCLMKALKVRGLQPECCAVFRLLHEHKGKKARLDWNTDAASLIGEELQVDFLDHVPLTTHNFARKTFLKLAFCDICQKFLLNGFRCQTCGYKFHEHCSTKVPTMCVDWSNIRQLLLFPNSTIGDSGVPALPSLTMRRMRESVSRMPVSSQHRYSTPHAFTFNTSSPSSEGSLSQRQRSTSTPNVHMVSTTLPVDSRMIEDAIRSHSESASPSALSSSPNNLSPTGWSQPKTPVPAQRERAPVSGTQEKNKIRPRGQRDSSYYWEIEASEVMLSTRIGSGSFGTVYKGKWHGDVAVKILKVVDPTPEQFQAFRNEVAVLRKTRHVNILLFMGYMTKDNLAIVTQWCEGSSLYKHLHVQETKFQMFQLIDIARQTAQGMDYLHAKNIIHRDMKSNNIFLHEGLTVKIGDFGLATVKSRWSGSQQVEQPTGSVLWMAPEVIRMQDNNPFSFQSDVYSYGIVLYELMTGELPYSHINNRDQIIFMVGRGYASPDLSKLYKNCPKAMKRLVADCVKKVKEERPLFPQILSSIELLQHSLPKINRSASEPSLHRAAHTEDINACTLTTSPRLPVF
B-Raf, sequence (P15056 whole entry): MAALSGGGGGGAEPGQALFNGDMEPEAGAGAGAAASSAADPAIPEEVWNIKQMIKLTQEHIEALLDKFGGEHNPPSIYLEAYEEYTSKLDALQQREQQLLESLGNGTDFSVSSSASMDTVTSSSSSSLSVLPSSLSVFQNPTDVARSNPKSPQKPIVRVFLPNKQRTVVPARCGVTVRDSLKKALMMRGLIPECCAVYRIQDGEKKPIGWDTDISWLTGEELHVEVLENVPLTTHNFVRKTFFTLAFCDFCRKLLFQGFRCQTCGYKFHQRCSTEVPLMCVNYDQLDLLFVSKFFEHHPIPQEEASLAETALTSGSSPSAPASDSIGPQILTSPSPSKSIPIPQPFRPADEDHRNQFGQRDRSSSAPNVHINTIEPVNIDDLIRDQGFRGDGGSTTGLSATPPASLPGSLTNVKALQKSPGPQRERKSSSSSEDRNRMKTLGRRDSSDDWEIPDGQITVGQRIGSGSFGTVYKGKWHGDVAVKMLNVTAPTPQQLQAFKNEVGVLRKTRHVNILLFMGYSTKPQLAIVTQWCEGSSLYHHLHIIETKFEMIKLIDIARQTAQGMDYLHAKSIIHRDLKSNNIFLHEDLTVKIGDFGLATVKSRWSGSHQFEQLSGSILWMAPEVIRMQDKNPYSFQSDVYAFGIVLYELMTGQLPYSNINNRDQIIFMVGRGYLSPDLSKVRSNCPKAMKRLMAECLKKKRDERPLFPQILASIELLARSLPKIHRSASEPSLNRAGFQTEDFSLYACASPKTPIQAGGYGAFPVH

With `CCN(CC)CC#CCOC(=O)Nc1nc2ccc(C3(O)c4ccccc4C(=O)N3c3cccc(Cl)c3F)cc2[nH]1` (stereo not drawn) [Entry 321, 4-(diethylamino)but-2-yn-1-yl {6-[2-(3-chloro-2-fluorophenyl)-1-hydroxy-3-oxo-2,3-dihydro-1H-isoindol-1-yl]-1H-benzimidazol-2-yl}carbamate] the IC50 (c-Raf) was < 100 nM and the IC50 (B-Raf) was < 100 nM.
With `COC(=O)Nc1nc2cc(C3(O)c4ccccc4C(=O)N3c3c(F)ccc(Cl)c3F)ccc2[nH]1` (stereo not drawn) [Entry 322, methyl {5-[2-(3-chloro-2,6-difluorophenyl)-1-hydroxy-3-oxo-2,3-dihydro-1H-isoindol-1-yl]-1H-benzimidazol-2-yl}carbamate] the IC50 (c-Raf) was < 100 nM and the IC50 (B-Raf) was < 100 nM.
In the case of `O=C(Nc1nc2ccc(C3(O)c4ccccc4C(=O)N3c3cccc(Cl)c3F)cc2[nH]1)OCCN1CCCC1=O` (stereo not drawn) [Entry 323, 2-(2-oxopyrrolidin-1-yl)ethyl {6-[2-(3-chloro-2-fluorophenyl)-1-hydroxy-3-oxo-2,3-dihydro-1H-isoindol-1-yl]-1H-benzimidazol-2-yl}carbamate], the IC50 (c-Raf) is reported as < 100 nM and the IC50 (B-Raf) is reported as < 100 nM.
For `O=C(Nc1nc2ccc(C3(O)c4ccccc4C(=O)N3c3cccc(Cl)c3F)cc2[nH]1)OCCN1C(=O)CCC1=O` (stereo not drawn) [Entry 324, 2-(2,5-dioxopyrrolidin-1-yl)ethyl {6-[2-(3-chloro-2-fluorophenyl)-1-hydroxy-3-oxo-2,3-dihydro-1H-isoindol-1-yl]-1H-benzimidazol-2-yl}carbamate], the IC50 (c-Raf) was < 100 nM and the IC50 (B-Raf) was < 100 nM.
For `O=C(Nc1nc2cc(C3(O)c4ccccc4C(=O)N3c3cccc(Cl)c3F)ccc2[nH]1)OC1CC(F)(F)C1(F)F` (stereo not drawn) [Entry 325, 2,2,3,3-tetrafluorocyclobutyl {5-[2-(3-chloro-2-fluorophenyl)-1-hydroxy-3-oxo-2,3-dihydro-1H-isoindol-1-yl]-1H-benzimidazol-2-yl}carbamate], the IC50 (c-Raf) was < 100 nM and the IC50 (B-Raf) was < 100 nM.
`CC(=O)N1CCC(C(=O)Nc2nc3cc(C4(O)c5ccccc5C(=O)N4c4cccc(Cl)c4F)ccc3[nH]2)CC1` (stereo not drawn) [Entry 326, 1-acetyl-N-{5-[2-(3-chloro-2-fluorophenyl)-1-hydroxy-3-oxo-2,3-dihydro-1H-isoindol-1-yl]-1H-benzimidazol-2-yl}piperidine-4-carboxamide] was tested, and the IC50 (c-Raf) was < 100 nM and the IC50 (B-Raf) was < 100 nM.
In the case of `O=C(Nc1nc2cc(C3(O)c4ccccc4C(=O)N3c3cccc(Cl)c3F)ccc2[nH]1)C1CCC1` (stereo not drawn) [Entry 327, N-{5-[2-(3-chloro-2-fluorophenyl)-1-hydroxy-3-oxo-2,3-dihydro-1H-isoindol-1-yl]-1H-benzimidazol-2-yl}cyclobutanecarboxamide], the IC50 (c-Raf) is reported as < 100 nM and the IC50 (B-Raf) is reported as < 100 nM.
For `CCN(c1ccccc1)c1cccc(N2C(=O)c3ccccc3C2(O)c2ccc3[nH]c(NC(=O)OC)nc3c2)c1` (stereo not drawn) [Entry 328, methyl [5-(2-{3-[ethyl(phenyl)amino]phenyl}-1-hydroxy-3-oxo-2,3-dihydro-1H-isoindol-1-yl)-1H-benzimidazol-2-yl]carbamate], the IC50 (c-Raf) was 100 to 1000 nM and the IC50 (B-Raf) was 100 to 1000 nM.
`O=C(Nc1nc2ccc(C3(O)c4ccccc4C(=O)N3c3cccc(Cl)c3F)cc2[nH]1)C1CC1(F)F` (stereo not drawn) [Entry 329, N-{6-[2-(3-chloro-2-fluorophenyl)-1-hydroxy-3-oxo-2,3-dihydro-1H-isoindol-1-yl]-1H-benzimidazol-2-yl}-2,2-difluorocyclopropanecarboxamide] was tested, and the IC50 (c-Raf) was < 100 nM and the IC50 (B-Raf) was < 100 nM.
In the case of `O=C(Nc1nc2ccc(C3(O)c4ccccc4C(=O)N3c3cccc(Cl)c3F)cc2[nH]1)OC1CCC1` (stereo not drawn) [Entry 330, cyclobutyl {6-[2-(3-chloro-2-fluorophenyl)-1-hydroxy-3-oxo-2,3-dihydro-1H-isoindol-1-yl]-1H-benzimidazol-2-yl}carbamate], the IC50 (c-Raf) is reported as < 100 nM and the IC50 (B-Raf) is reported as < 100 nM.
With `O=C(Nc1nc2ccc(C3(O)c4ccccc4C(=O)N3c3cccc(Cl)c3F)cc2[nH]1)OCC(F)F` (stereo not drawn) [Entry 331, 2,2-difluoroethyl {6-[2-(3-chloro-2-fluorophenyl)-1-hydroxy-3-oxo-2,3-dihydro-1H-isoindol-1-yl]-1H-benzimidazol-2-yl}carbamate] the IC50 (c-Raf) was < 100 nM and the IC50 (B-Raf) was < 100 nM.
With `O=C1c2ccccc2C(O)(c2ccc3[nH]c(Nc4ccccn4)nc3c2)N1c1cccc(Cl)c1F` (stereo not drawn) [Entry 332, 2-(3-chloro-2-fluorophenyl)-3-hydroxy-3-[2-(pyridin-2-ylamino)-1H-benzimidazol-5-yl]-2,3-dihydro-1H-isoindol-1-one] the IC50 (c-Raf) was < 100 nM and the IC50 (B-Raf) was < 100 nM.
With `CC(C)OC(=O)Nc1nc2ccc(C3(O)c4ccccc4C(=O)N3c3cccc(Cl)c3F)cc2[nH]1` (stereo not drawn) [Entry 333, 1-methylethyl {6-[2-(3-chloro-2-fluorophenyl)-1-hydroxy-3-oxo-2,3-dihydro-1H-isoindol-1-yl]-1H-benzimidazol-2-yl}carbamate] the IC50 (c-Raf) was < 100 nM and the IC50 (B-Raf) was < 100 nM.
`O=C(Nc1nc2ccc(C3(O)c4ccccc4C(=O)N3c3cccc(Cl)c3F)cc2[nH]1)OCC1CC1` (stereo not drawn) [Entry 334, cyclopropylmethyl {6-[2-(3-chloro-2-fluorophenyl)-1-hydroxy-3-oxo-2,3-dihydro-1H-isoindol-1-yl]-1H-benzimidazole-2-yl}carbamate] was tested, and the IC50 (c-Raf) was < 100 nM and the IC50 (B-Raf) was < 100 nM.
In the case of `O=C(Nc1nc2cc(C3(O)c4ccccc4C(=O)N3c3cccc(Cl)c3F)ccc2[nH]1)C1CC1` (stereo not drawn) [Entry 335, N-{5-[2-(3-chloro-2-fluorophenyl)-1-hydroxy-3-oxo-2,3-dihydro-1H-isoindol-1-yl]-1H-benzimidazol-2-yl}cyclopropanecarboxamide], the IC50 (c-Raf) is reported as < 100 nM and the IC50 (B-Raf) is reported as < 100 nM.
For `COCCOC(=O)Nc1nc2cc(C3(O)c4ccccc4C(=O)N3c3cccc(Cl)c3F)ccc2[nH]1` (stereo not drawn) [Entry 336, 2-(methyloxy)ethyl {5-[2-(3-chloro-2-fluorophenyl)-1-hydroxy-3-oxo-2,3-dihydro-1H-isoindol-1-yl]-1H-benzimidazol-2-yl}carbamate], the IC50 (c-Raf) was < 100 nM and the IC50 (B-Raf) was < 100 nM.
With `O=C(Nc1nc2ccc(C3(O)c4ccccc4C(=O)N3c3cccc(Cl)c3F)cc2[nH]1)OCC1CCCO1` (stereo not drawn) [Entry 337, tetrahydrofuran-2-ylmethyl {6-[2-(3-chloro-2-fluorophenyl)-1-hydroxy-3-oxo-2,3-dihydro-1H-isoindol-1-yl]-1H-benzimidazol-2-yl}carbamate] the IC50 (c-Raf) was < 100 nM and the IC50 (B-Raf) was < 100 nM.
With `O=C(Cc1cccs1)Nc1nc2cc(C3(O)c4ccccc4C(=O)N3c3cccc(Cl)c3F)ccc2[nH]1` (stereo not drawn) [Entry 338, N-{5-[2-(3-chloro-2-fluorophenyl)-1-hydroxy-3-oxo-2,3-dihydro-1H-isoindol-1-yl]-1H-benzimidazol-2-yl}-2-(2-thienyl)acetamide] the IC50 (c-Raf) was < 100 nM and the IC50 (B-Raf) was < 100 nM.
For `COC(=O)Nc1nc2ccc(C3(O)c4c(F)ccc(F)c4C(=O)N3c3cccc(Cl)c3F)cc2[nH]1` (stereo not drawn) [Entry 339, methyl {6-[2-(3-chloro-2-fluorophenyl)-4,7-difluoro-1-hydroxy-3-oxo-2,3-dihydro-1H-isoindol-1-yl]-1H-benzimidazol-2-yl}carbamate], the IC50 (c-Raf) was < 100 nM and the IC50 (B-Raf) was < 100 nM.
With `CCOC(=O)Nc1nc2ccc(C3(O)c4ccccc4C(=O)N3c3cccc(Cl)c3F)cc2[nH]1` (stereo not drawn) [Entry 340, ethyl {6-[2-(3-chloro-2-fluorophenyl)-1-hydroxy-3-oxo-2,3-dihydro-1H-isoindol-1-yl]-1H-benzimidazol-2-yl}carbamate] the IC50 (c-Raf) was < 100 nM and the IC50 (B-Raf) was < 100 nM.
With `O=C(Nc1nc2ccc(C3(O)c4ccccc4C(=O)N3c3cccc(Cl)c3F)cc2[nH]1)OCCF` (stereo not drawn) [Entry 341, 2-fluoroethyl {6-[2-(3-chloro-2-fluorophenyl)-1-hydroxy-3-oxo-2,3-dihydro-1H-isoindol-1-yl]-1H-benzimidazol-2-yl}carbamate] the IC50 (c-Raf) was < 100 nM and the IC50 (B-Raf) was < 100 nM.
For `COC(=O)Nc1nc2cc(C3(O)c4ccccc4C(=O)N3c3ccccc3Oc3ccccc3)ccc2[nH]1` (stereo not drawn) [Entry 342, methyl (5-{1-hydroxy-3-oxo-2-[2-(phenyloxy)phenyl]-2,3-dihydro-1H-isoindol-1-yl}-1H-benzimidazol-2-yl)carbamate], the IC50 (c-Raf) was 100 to 1000 nM and the IC50 (B-Raf) was 100 to 1000 nM.
With `CCN(CC)C(=O)CCCC(=O)Nc1nc2cc(C3(O)c4ccccc4C(=O)N3c3cccc(Cl)c3F)ccc2[nH]1` (stereo not drawn) [Entry 343, N′-{5-[2-(3-chloro-2-fluorophenyl)-1-hydroxy-3-oxo-2,3-dihydro-1H-isoindol-1-yl]-1H-benzimidazol-2-yl}-N,N-diethylpentanediamide] the IC50 (c-Raf) was < 100 nM and the IC50 (B-Raf) was < 100 nM.
With `O=C(Nc1nc2ccc(C3(O)c4ccccc4C(=O)N3c3cccc(Cl)c3F)cc2[nH]1)OCC1CCC1` (stereo not drawn) [Entry 344, cyclobutylmethyl {6-[2-(3-chloro-2-fluorophenyl)-1-hydroxy-3-oxo-2,3-dihydro-1H-isoindol-1-yl]-1H-benzimidazol-2-yl}carbamate] the IC50 (c-Raf) was < 100 nM and the IC50 (B-Raf) was < 100 nM.
`O=C(Nc1nc2ccc(C3(O)c4ccccc4C(=O)N3c3cccc(Cl)c3F)cc2[nH]1)OCC(F)(F)F` (stereo not drawn) [Entry 345, 2,2,2-trifluoroethyl {6-[2-(3-chloro-2-fluorophenyl)-1-hydroxy-3-oxo-2,3-dihydro-1H-isoindol-1-yl]-1H-benzimidazol-2-yl}carbamate] was tested, and the IC50 (c-Raf) was < 100 nM and the IC50 (B-Raf) was < 100 nM.
`COC(=O)Nc1nc2cc(C3(O)c4ccccc4C(=O)N3c3cccc(C(C)(C)C)c3)ccc2[nH]1` (stereo not drawn) [Entry 346, methyl (5-{2-[3-(1,1-dimethylethyl)phenyl]-1-hydroxy-3-oxo-2,3-dihydro-1H-isoindol-1-yl}-1H-benzimidazol-2-yl)carbamate] was tested, and the IC50 (c-Raf) was < 100 nM and the IC50 (B-Raf) was < 100 nM.
For `COC(=O)Nc1nc2ccc(C3(O)c4c(F)cccc4C(=O)N3c3cccc(Cl)c3F)cc2[nH]1` (stereo not drawn) [Entry 347, methyl {6-[2-(3-chloro-2-fluorophenyl)-7-fluoro-1-hydroxy-3-oxo-2,3-dihydro-1H-isoindol-1-yl]-1H-benzimidazol-2-yl}carbamate], the IC50 (c-Raf) was < 100 nM and the IC50 (B-Raf) was < 100 nM.
